Measurements taken from paper PMC6928678, “Simplified Head-to-Tail Cyclic Polypeptides as Biomaterial-Associated Antimicrobials with Endotoxin Neutralizing and Anti-Inflammatory Capabilities” (International Journal of Molecular Sciences, 2019).
≈ marks a conversion by molar mass, not a printed value. Like-named read-outs stand apart in the source and are kept apart here. Where a SMILES comes first, the peptide text is derived from it.

Key:
[1] = RP-HPLC used as measure of hydrophobicity; 4.6 mm × 250 mm Venusil MP C18-5 column, 220 nm, linear acetonitrile gradient 15% to 45% in 30 min, 0.1% trifluoroacetic acid, 1 mL/min
From the text: In this experiment, cyclic, linear and D-proline antimicrobial peptides were designed based on the IR-rich template sequence (IR)nP(IR)nP (n = 1, 2 and 3). […] The […] molecular weights of the peptides were identified using mass spectrometry. […] The hydrophobicity of the peptides in solution is dependably mirrored by the HPLC retention times.

S. aureus 29213 = experiment: microbe, parasite or virus in culture; type: cell-based, Staphylococcus aureus
Description: (§1) The test strains, including Gram-negative E. coli ATCC25922, E. coli ATCC 1005, S. typhimurium C7731, P. aeruginosa ATCC 27853, S. Typhimurium 14028, Gram-positive S. aureus ATCC29213, S. aureus ATCC 25923, S. epidermidis ATCC 12228 and S. aureus 43300, were obtained from the School of Veterinary Medicine, Northeast Agricultural University (Harbin, China).
(§2) Briefly, the bacteria were incubated overnight at 37 °C with constant shaking at 220 rpm, then were transferred to new MH broth (MHB) medium until they reached the logarithmic phase of growth. The bacteria were then diluted to 10^5 (CFU)/mL in MHB. The peptides were dissolved and diluted in 0.01% acetic acid and 0.2% bovine serum albumin (BSA) at various concentrations (0.5–128 μM) in each well of sterile 96-well plates and incubated for 20 h at 37 °C. […] The test was repeated three times.

S. aureus 25923 = experiment: microbe, parasite or virus in culture; type: cell-based, Staphylococcus aureus
Description: as §1, §2

[2] = tested on: gram-negative strains tested; experiment: Geometric mean of MICs, gram-negative strains; type: cell-based; conditions: 5 gram-negative strains; >128 apparently counted as 256; read-out: nGM (–), geometric mean of the MICs against gram-negative strains
Description: as §2

MRSA43300 = experiment: microbe, parasite or virus in culture; type: cell-based, Methicillin-resistant Staphylococcus aureus
Description: as §1, §2

E. coli 25922 = experiment: microbe, parasite or virus in culture; type: cell-based, Escherichia coli
Description: as §1, §2

E. coli UB 1005 = experiment: microbe, parasite or virus in culture; type: cell-based, Escherichia coli
Description: as §1, §2

[3] = tested on: gram-positive strains tested; experiment: organism not typed; type: cell-based; conditions: for pGM (+), geometric mean of the MICs against gram-positive strains: 20 h
Description: as §2

P. aeruginosa 27853 = experiment: microbe, parasite or virus in culture; type: cell-based; conditions: read-out: MIC
Description: as §1, §2

S. epidermidis 12228 = experiment: microbe, parasite or virus in culture; type: cell-based
Description: as §1, §2

S. typhimurium 7731 = experiment: microbe, parasite or virus in culture; type: cell-based
Description: as §1, §2

S. typhimurium 14028 = experiment: microbe, parasite or virus in culture; type: cell-based
Description: as §1, §2

[4] = tested on: human red blood cells (hRBCs); experiment: Hemolysis assay; type: cell-based
Description: Figure 2 (A) Hemolytic activity of the engineered peptides against human red blood cells (hRBCs). The hRBCs were incubated with equal amounts of the respective peptides dissolved in PBS for 1 h at 37 °C. (B) Cytotoxicity of the engineered peptides against RAW264.7. […] Data shown are three independent experiments.
The hemolytic activity of the peptides is determined by measuring the amount of hemoglobin released during the lysis of human erythrocytes at different concentrations of AMPs. Briefly, fresh, healthy human red blood cells (hRBCs) were collected and then washed three times with phosphate-buffered saline (PBS) buffer (pH 7.2) and centrifuged at 1000× g for 5 min. Each 50 µL sample of hRBCs was incubated with 50 µL of the respective peptide dissolved in PBS in a well of a 96-well plate for 1 h at 37 °C. After incubation, the samples were centrifuged at 1000× g for 5 min and the supernatants (50 μL) were transferred to a new 96-well microplate. The release of hemoglobin was measured by monitoring the OD at 570 nm (Tecan, Salzburg, Austria). Negative (hRBCs without AMP treatment) and positive (hRBCs treated with 0.1% TritonX-100) controls were used. The concentration of peptide that caused 5% hemolysis was considered the minimal hemolysis concentration (MHC). The test was repeated three times. The percent hemolysis was calculated using the following formula:(2) Percent hemolysis=A−A0/At−A0× 100% A0 and At represent 0% and 100% hemolysis as measured in 10 mM PBS and 0.2% Triton X-100, respectively.

[5] = tested on: all the 9 bacteria tested; experiment: Geometric mean of MICs, all 9 bacteria; type: cell-based; conditions: for tGM, geometric mean of the MICs against all the 9 bacteria: all 9 bacteria tested
Description: as §2

[6] = tested on: bacteria versus human red blood cell; experiment: Selectivity index (MHC5/GM); conditions: 256 μM used for MHC5 when no hemolysis at 128 μM
Description: To investigate the cell selectivity of novel antimicrobials, the total selectivity index (TSI) was calculated as the ratio of the minimal hemolysis concentration (MHC) to the geometric mean (GM) of the MIC values (Table 2).

[7] = tested on: Gram-positive and Gram-negative bacteria; experiment: Antimicrobial assay (MIC), statement over all strains; type: cell-based; conditions: all strains tested
Description: as §2

In the case of `CC[C@H](C)[C@@H]1NC(=O)[C@H](CCCNC(=N)N)NC(=O)[C@H]([C@@H](C)CC)NC(=O)[C@@H]2CCCN2C(=O)[C@H](CCCNC(=N)N)NC(=O)[C@H]([C@@H](C)CC)NC(=O)[C@H](CCCNC(=N)N)NC(=O)[C@H]([C@@H](C)CC)NC(=O)[C@@H]2CCCN2C(=O)[C@H](CCCNC(=N)N)NC1=O` [OIR2] (cyclo(IRIRPIRIRP)), the “RT (retention time)” value [1] is reported as 10.66 min, the MIC (S. aureus 29213; 29213, 20 h) is reported as greater than 128 µM and the MIC (S. aureus 25923; 25923, 20 h) is reported as greater than 128 µM. The MIC [2] was 147.0 µM (≈ 187 µg/mL), the MIC (MRSA43300; 20 h) was greater than 128 µM and the MIC (E. coli 25922; 25922, 20 h) was 64 µM (≈ 81.4 µg/mL). The MIC (E. coli UB 1005; UB 1005, 20 h) was 64 µM (≈ 81.4 µg/mL), the “pGM (+), geometric mean of the MICs against gram-positive strains” value [3] was 256 µM and the MIC (P. aeruginosa 27853; 27853, 20 h) was greater than 128 µM. It also gave an MIC (S. epidermidis 12228; 12228, 20 h) greater than 128 µM, an MIC (S. typhimurium 7731; 7731, 20 h) greater than 128 µM and an MIC (S. typhimurium 14028; 14028, 20 h) greater than 128 µM. The “MHC5, minimum hemolytic concentration that induced ≥5% hemolysis” value ([4]; red cells of human, 1 h) was greater than 128 µM and the “tGM, geometric mean of the MICs against all the 9 bacteria” value [5] was 188.1 µM.

In the case of `CC1(C)S[C@@H]2[C@H](NC(=O)Cc3ccccc3)C(=O)N2[C@H]1C(=O)O` [PS, Penicillin Sodium, reference compound], the “nSI (–), selectivity index MHC5/GM (−)” value [6] is reported as 10.5, the “pSI (+), selectivity index MHC5/GM(+)” value [6] is reported as 19.0 and the “tSI, total selectivity index MHC5/TGM” value [6] is reported as 13.7. For the same compound, the MIC (S. aureus 29213; Staphylococcus aureus, S. aureus 29213, MHB, 10^5 CFU/mL, 20 h 37 °C, repeated three times) was 64 µM, the MIC (S. aureus 25923; Staphylococcus aureus, S. aureus 25923, MHB, 10^5 CFU/mL, 20 h 37 °C, repeated three times) was 32 µM and the MIC [2] was 24.3 µM. The MIC (MRSA43300; Staphylococcus aureus, MRSA43300, MHB, 10^5 CFU/mL, 20 h 37 °C, repeated three times) was 32 µM, the MIC (E. coli 25922; Escherichia coli, E. coli 25922, MHB, 10^5 CFU/mL, 0.5–128 μM peptide, 20 h 37 °C, OD 492 nm, repeated three times) was 128 µM and the MIC (E. coli UB 1005; Escherichia coli, UB1005, E. coli UB 1005, MHB, 10^5 CFU/mL, 20 h 37 °C, repeated three times) was 64 µM. It also gave an MIC ([3]; 4 gram-positive strains, >128 apparently counted as 256, read-out: pGM (+), geometric mean of the MICs against gram-positive strains) of 13.5 µM, an MIC (P. aeruginosa 27853; Pseudomonas aeruginosa, P. aeruginosa 27853, MHB, 10^5 CFU/mL, 20 h 37 °C, repeated three times) of 128 µM and an MIC (S. epidermidis 12228; Staphylococcus epidermidis, S. epidermidis 12228, MHB, 10^5 CFU/mL, 20 h 37 °C, repeated three times) of 0.5 µM. The MIC (S. typhimurium 7731; Salmonella enterica, S. typhimurium 7731, MHB, 10^5 CFU/mL, 20 h 37 °C, repeated three times) was 0.5 µM, the MIC (S. typhimurium 14028; Salmonella enterica, S. typhimurium 14028, MHB, 10^5 CFU/mL, 20 h 37 °C, repeated three times) was 16 µM and the “MHC5, minimum hemolytic concentration that induced ≥5% hemolysis” value ([4]; human red blood cells, PBS, 1 h at 37 °C, OD 570 nm, repeated three times) was greater than 128 µM. For the same compound, the “GM MIC (range of Gram-negative and Gram-positive geometric means)” value ([5]; Table 2) was 13.5 to 24.3 µM and the MIC ([5]; read-out: tGM, geometric mean of the MICs against all the 9 bacteria) was 18.7 µM.

In the case of `CC[C@H](C)[C@@H]1NC(=O)[C@@H]2CCCN2C(=O)[C@H](CCCNC(=N)N)NC(=O)[C@H]([C@@H](C)CC)NC(=O)[C@@H]2CCCN2C(=O)[C@H](CCCNC(=N)N)NC1=O` [OIR1] (cyclo(IRPIRP)), the “RT (retention time)” value [1] is reported as 10.32 min, the MIC (S. aureus 29213; 29213, 20 h) is reported as greater than 128 µM and the MIC (S. aureus 25923; 25923, 20 h) is reported as greater than 128 µM. For the same compound, the MIC [2] was 256 µM (≈ 188 µg/mL), the MIC (MRSA43300; 20 h) was greater than 128 µM and the MIC (E. coli 25922; 25922, 20 h) was greater than 128 µM. The MIC (E. coli UB 1005; UB 1005, 20 h) was greater than 128 µM, the “pGM (+), geometric mean of the MICs against gram-positive strains” value [3] was 256 µM and the MIC (P. aeruginosa 27853; 27853, 20 h) was greater than 128 µM. For the same compound, the MIC (S. epidermidis 12228; 12228, 20 h) was greater than 128 µM, the MIC (S. typhimurium 7731; 7731, 20 h) was greater than 128 µM and the MIC (S. typhimurium 14028; 14028, 20 h) was greater than 128 µM. For the same compound, the “MHC5, minimum hemolytic concentration that induced ≥5% hemolysis” value ([4]; red cells of human, 1 h) was greater than 128 µM, the “MIC in the presence of Gram-positive and Gram-negative bacteria” value [7] was “greater than 128 μM” and the “tGM, geometric mean of the MICs against all the 9 bacteria” value [5] was 256 µM.
